From US8445676B2, “Pyrrolotriazine kinase inhibitors” (Bristol-Myers Squibb Company, priority 2008, dated 2013)
Where two headings read alike, the source gives them in different places.

Key:
Assay type in all cases: biochemical
[1] = target: T1, JAK3 (Homo sapiens, UniProt P52333); assay: JAK3 Tyrosine Kinase Assay; settings: ATP 8 μM; JAK3 2.5 nM; 60 min room temperature
T1 sequence (P52333 1-1124): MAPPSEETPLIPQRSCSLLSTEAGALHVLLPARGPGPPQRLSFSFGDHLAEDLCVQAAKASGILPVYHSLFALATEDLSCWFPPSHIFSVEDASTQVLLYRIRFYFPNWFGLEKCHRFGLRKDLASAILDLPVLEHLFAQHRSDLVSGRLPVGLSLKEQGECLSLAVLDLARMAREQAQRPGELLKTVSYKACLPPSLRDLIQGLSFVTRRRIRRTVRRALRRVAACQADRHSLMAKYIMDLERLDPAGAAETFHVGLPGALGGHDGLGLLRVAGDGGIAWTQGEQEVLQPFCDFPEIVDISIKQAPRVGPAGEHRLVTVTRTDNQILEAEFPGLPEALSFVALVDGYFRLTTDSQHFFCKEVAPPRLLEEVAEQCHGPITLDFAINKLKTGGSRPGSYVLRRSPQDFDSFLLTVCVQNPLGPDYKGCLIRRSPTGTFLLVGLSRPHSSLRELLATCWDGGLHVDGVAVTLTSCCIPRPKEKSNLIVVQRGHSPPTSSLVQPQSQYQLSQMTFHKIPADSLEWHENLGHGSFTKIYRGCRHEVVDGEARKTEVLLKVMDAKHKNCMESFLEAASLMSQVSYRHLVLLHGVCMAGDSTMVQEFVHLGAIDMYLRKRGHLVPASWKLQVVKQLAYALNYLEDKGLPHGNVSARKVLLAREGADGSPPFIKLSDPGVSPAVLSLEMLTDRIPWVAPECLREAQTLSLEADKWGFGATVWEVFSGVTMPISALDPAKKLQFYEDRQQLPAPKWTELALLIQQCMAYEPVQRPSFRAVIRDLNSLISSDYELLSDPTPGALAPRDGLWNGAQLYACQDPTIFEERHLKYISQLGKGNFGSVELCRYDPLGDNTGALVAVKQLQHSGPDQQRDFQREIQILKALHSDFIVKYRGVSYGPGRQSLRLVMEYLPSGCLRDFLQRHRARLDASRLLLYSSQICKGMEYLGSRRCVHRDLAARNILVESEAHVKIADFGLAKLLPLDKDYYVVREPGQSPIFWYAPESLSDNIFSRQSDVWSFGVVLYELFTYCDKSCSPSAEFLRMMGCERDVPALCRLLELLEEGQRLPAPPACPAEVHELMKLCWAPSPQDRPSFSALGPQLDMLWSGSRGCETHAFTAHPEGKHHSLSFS
Procedure: JAK3 Tyrosine Kinase Assay
The assays were performed in V-bottom 384-well plates. […] The reaction was initiated by the combination of JAK3 with substrates and test compounds. The reaction was incubated at room temperature for 60 min. and terminated by adding 45 μl of 35 mM EDTA to each sample. The reaction mixture was analyzed on the Caliper LabChip 3000 by electrophoretic separation of the fluorescent substrate and phosphorylated product. […] The final concentration of reagents in the assays is ATP, 8 μM; JAK3 fluorescent peptide, 1.5 μM; JAK3, 2.5 nM; and DMSO, 1.6%. […] Compounds were dissolved at 10 mM in dimethylsulfoxide (DMSO) and evaluated at eleven concentrations, each in duplicate. IC50 values were derived by non-linear regression analysis.

[2] = target: JAK2 (Homo sapiens, UniProt O60674); assay: JAK2 Tyrosine Kinase Assay
Chain of JAK2 (O60674 whole entry): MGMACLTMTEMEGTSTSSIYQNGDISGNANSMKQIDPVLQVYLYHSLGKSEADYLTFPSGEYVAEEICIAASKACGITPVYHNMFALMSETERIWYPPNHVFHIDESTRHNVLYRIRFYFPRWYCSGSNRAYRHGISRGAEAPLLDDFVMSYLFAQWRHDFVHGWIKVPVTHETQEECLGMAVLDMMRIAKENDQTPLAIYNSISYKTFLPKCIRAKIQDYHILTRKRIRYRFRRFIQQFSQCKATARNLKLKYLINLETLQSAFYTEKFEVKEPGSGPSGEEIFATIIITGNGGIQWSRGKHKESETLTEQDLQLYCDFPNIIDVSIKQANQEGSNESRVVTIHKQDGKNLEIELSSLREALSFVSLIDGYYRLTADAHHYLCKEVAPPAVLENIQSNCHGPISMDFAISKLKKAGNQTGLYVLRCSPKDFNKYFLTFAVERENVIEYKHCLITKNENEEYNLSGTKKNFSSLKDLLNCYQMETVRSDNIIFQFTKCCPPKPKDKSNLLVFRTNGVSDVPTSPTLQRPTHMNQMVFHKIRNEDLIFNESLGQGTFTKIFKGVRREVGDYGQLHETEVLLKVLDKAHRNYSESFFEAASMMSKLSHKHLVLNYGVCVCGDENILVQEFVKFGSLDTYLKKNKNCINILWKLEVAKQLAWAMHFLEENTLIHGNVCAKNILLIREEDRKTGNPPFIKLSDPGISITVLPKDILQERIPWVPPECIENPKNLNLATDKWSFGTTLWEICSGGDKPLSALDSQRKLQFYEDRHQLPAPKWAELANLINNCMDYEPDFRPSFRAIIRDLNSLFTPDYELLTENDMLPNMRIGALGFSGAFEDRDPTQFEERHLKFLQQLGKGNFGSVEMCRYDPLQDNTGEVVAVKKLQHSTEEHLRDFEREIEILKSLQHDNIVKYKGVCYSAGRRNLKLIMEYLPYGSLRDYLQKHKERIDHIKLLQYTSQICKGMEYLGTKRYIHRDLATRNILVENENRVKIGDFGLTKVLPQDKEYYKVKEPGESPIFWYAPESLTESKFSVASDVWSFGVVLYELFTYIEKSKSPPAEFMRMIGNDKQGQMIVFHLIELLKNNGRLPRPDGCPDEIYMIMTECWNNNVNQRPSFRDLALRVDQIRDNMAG
Summary of the method: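 Reaction of JAK2 with fluorescent substrate run 60 min at room temperature and stopped with EDTA. Substrate and phosphorylated product separated electrophoretically on a Caliper LabChip. Compounds tested at eleven concentrations in duplicate, with IC50 from non-linear regression.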

[3] = target: T1, JAK3; assay: JAK3 Tyrosine Kinase Assay; settings: prior-art compound, stated in the background; read-out: IC50 against JAK3
[4] = ATP 30 μM, JAK2 1 nM, 60 min room temperature, read-out: Jak2(IC50)

IC50 [1] [µM] | IC50 [2, 4] [µM] | IC50 ([2]; prior-art compound, stated in the background, read-out: IC50 against JAK2) [µM] | IC50 [3] [µM] | Structure (SMILES)
0.05 | 0.00814 |  |  | Cc1cc(Nc2nc(N3CCN(C(=O)c4c(F)cccc4F)CC3)nn3cccc23)n[nH]1 [Example 20, 2-(4-(2,6-difluorobenzoyl)-1-piperazinyl)-N-(5-methyl-1H-pyrazol-3-yl)pyrrolo[2,1-f] [1,2,4]triazin-4-amine]
0.21 | 0.00707 |  |  | Cc1cc(Nc2nc(N3CCN(C(=O)C(C)(C)C)CC3)nn3cccc23)n[nH]1 [Example 168, 2-(4-(2,2-dimethylpropanoyl)-1-piperazinyl)-N-(5-methyl-1H-pyrazol-3-yl)pyrrolo[2,1-f][1,2,4]triazin-4-amine]
0.02 | 0.000903 |  |  | Cc1cc(Nc2nc(N3CCN(C(=O)Cc4cccc(C(F)(F)F)c4)CC3)nn3cccc23)n[nH]1 [Example 48, N-(5-methyl-1H-pyrazol-3-yl)-2-(4-((3-(trifluoromethyl)phenyl)acetyl)-1-piperazinyl)pyrrolo[2,1-f][1,2,4]triazin-4-amine]
0.03 | 0.00112 |  |  | Cc1cc(Nc2nc(N3CCN(C(=O)Cc4c(Cl)cccc4Cl)CC3)nn3cccc23)n[nH]1 [Example 38, 2-(4-((2,6-dichlorophenyl)acetyl)-1-piperazinyl)-N-(5-methyl-1H-pyrazol-3-yl)pyrrolo[2,1-f][1,2,4]triazin-4-amine]
0.12 | 0.00716 |  |  | Cc1cnc(C(=O)N2CCN(c3nc(Nc4cc(C)[nH]n4)c4cccn4n3)CC2)cn1 [Example 32, 2-(4-((5-methyl-2-pyrazinyl)carbonyl)-1-piperazinyl)-N-(5-methyl-1H-pyrazol-3-yl)pyrrolo[2,1-f] [1,2,4]triazin-4-amine]
2.06 | 0.32 |  |  | Cc1cc(Nc2nc(N3CCN(C(=O)C(C)(C)c4ccccc4)CC3)nn3cccc23)n[nH]1 [Example 7, 2-(4-(2-methyl-2-phenylpropanoyl)-1-piperazinyl)-N-(5-methyl-1H-pyrazol-3-yl)pyrrolo[2,1-f] [1,2,4]triazin-4-amine]
0.00984 | 0.000604 |  |  | Cc1cc(Nc2nc(N3CCN(C(=O)Cc4ccccc4C(F)(F)F)CC3)nn3cccc23)n[nH]1 [Example 10, N-(5-methyl-1H-pyrazol-3-yl)-2-(4-((2-(trifluoromethyl)phenyl)acetyl)-1-piperazinyl)pyrrolo[2,1-f][1,2,4]triazin-4-amine]
0.17 | 0.0079 |  |  | COc1cccc(CC(=O)N2CCN(c3nc(Nc4cc(C)[nH]n4)c4cccn4n3)CC2)c1 [Example 49, 2-(4-((3-methoxyphenyl)acetyl)-1-piperazinyl)-N-(5-methyl-1H-pyrazol-3-yl)pyrrolo[2,1-f][1,2,4]triazin-4-amine]
13.7 | 0.7 |  |  | Cc1cc(Nc2nc(N3CCN(C(=O)C(C)(C)NC(=O)OC(C)(C)C)CC3)nn3cccc23)n[nH]1 [Example 150, tert-butyl (1,1-dimethyl-2-(4-(4-((5-methyl-1H-pyrazol-3-yl)amino)pyrrolo[2,1-f][1,2,4]triazin-2-yl)-1-piperazinyl)-2-oxoethyl)carbamate]
9.48 | 0.59 |  |  | Cc1cc(Nc2nc(N3CCN(C(=O)[C@@](C)(O)c4ccccc4)CC3)nn3cccc23)n[nH]1 [Example 211, (2S)-1-(4-(4-((5-methyl-1H-pyrazol-3-yl)amino)pyrrolo[2,1-f][1,2,4]triazin-2-yl)-1-piperazinyl)-1-oxo-2-phenyl-2-propanol]
0.00841 | 0.000887 |  |  | Cc1cc(Nc2nc(N3CCN(C(=O)Cc4ccc(C(F)(F)F)cc4C(F)(F)F)CC3)nn3cccc23)n[nH]1 [Example 134, 2-(4-((2,4-bis(trifluoromethyl)phenyl)acetyl)-1-piperazinyl)-N-(5-methyl-1H-pyrazol-3-yl)pyrrolo[2,1-f] [1,2,4]triazin-4-amine]
0.2 | 0.00683 |  |  | Cc1ccc(C2(C(=O)N3CCN(c4nc(Nc5cc(C)[nH]n5)c5cccn5n4)CC3)CC2)cc1 [Example 187, 2-(4-((1-(4-methylphenyl)cyclopropyl)carbonyl)-1-piperazinyl)-N-(5-methyl-1H-pyrazol-3-yl)pyrrolo[2,1-f][1,2,4]triazin-4-amine]
0.02 | 0.000697 |  |  | Cc1cc(Nc2nc(N3CCN(C(=O)Cc4ccc(OC(F)(F)F)cc4)CC3)nn3cccc23)n[nH]1 [Example 91, N-(5-methyl-1H-pyrazol-3-yl)-2-(4-((4-(trifluoromethoxy)phenyl)acetyl)-1-piperazinyl)pyrrolo[2,1-f][1,2,4]triazin-4-amine]
 |  | 0.031 | 0.46 | Cc1cc(Nc2nc(N3CCNCC3)nn3cccc23)[nH]n1 [Example 74 of the publication, reference compound]
1.41 | 0.15 |  |  | Cc1cc(Nc2nc(N3CCN(C(=O)C4(c5ccc(F)cc5)CCCCC4)CC3)nn3cccc23)n[nH]1 [Example 126, 2-(4-((1-(4-fluorophenyl)cyclohexyl)carbonyl)-1-piperazinyl)-N-(5-methyl-1H-pyrazol-3-yl)pyrrolo[2,1-f] [1,2,4]triazin-4-amine]
0.04 | 0.00714 |  |  | Cc1cc(Nc2nc(N3CCN(C(=O)c4ccns4)CC3)nn3cccc23)n[nH]1 [Example 106, 2-(4-(5-isothiazolylcarbonyl)-1-piperazinyl)-N-(5-methyl-1H-pyrazol-3-yl)pyrrolo[2,1-f] [1,2,4]triazin-4-amine]
0.01 | 0.000898 |  |  | Cc1cc(Nc2nc(N3CCN(C(=O)c4cccc(C#N)c4)CC3)nn3cccc23)n[nH]1 [Example 66, 3-((4-(4-((5-methyl-1H-pyrazol-3-yl)amino)pyrrolo[2,1-f][1,2,4]triazin-2-yl)-1-piperazinyl)carbonyl)benzonitrile]
0.16 | 0.00773 |  |  | Cc1cc(Nc2nc(N3CCN(C(=O)Cc4ccc(F)cc4F)CC3)nn3cccc23)n[nH]1 [Example 37, 2-(4-((2,4-difluorophenyl)acetyl)-1-piperazinyl)-N-(5-methyl-1H-pyrazol-3-yl)pyrrolo[2,1-f][1,2,4]triazin-4-amine]
